Source: paper PMC6826616, “Topical 2′-Hydroxyflavanone for Cutaneous Melanoma” (Cancers, 2019)
Where two headings read alike, the source gives them in different places.

Key:
B16-F0 cells [1] = experiment: Western blot densitometry of whole-cell lysates, B16-F0; assay type: cell-based, mouse; conditions: 48 h
Protocol: (§1) B16-F0, F16-F10, and SK-MEL-24 cells were treated for 24 h with vehicle, 50 µM, and 100 µM 2HF. Cells were harvested and lysates prepared for Western blot using a radioimmunoprecipitation assay (RIPA) buffer with a protease (complete ULTRA) and phosphatase inhibitor (PhosSTOP) cocktail (Sigma-Aldrich, St. Louis, MO, USA). Total cell lysates (25 µg/lane) were loaded on 4–12% bis-tris gels, with MES gel running buffer. Proteins were transferred to nitrocellulose membrane, and nonspecific binding was minimized with 1× clear milk blocking buffer +0.1%TWEEN 20 (ThermoFisher Scientific, Waltham, MA, USA) for 1 h at room temperature. All primary antibodies were purchased from Santa Cruz Biotechnology except mouse monoclonal, TNF-α (Invitrogen), (1:1000), in 1× clear milk +0.1% TWEEN 20 overnight at 4 °C. Secondary antibody from Santa Cruz Biotech (1:2000) was incubated for 1 h at room temperature in 1× clear milk, 0.1% TWEEN 20.
(§2) Supplemental data for Fig. 2C. Caspase 9
(§3) Numbers below of each blot represent protein 1.0 1.2 0.5 ND ND ND ND ND ND band intensity ratios to adequate controls after Procaspase 3 […]
(§4) RAL BP- 1 and apoptosis enzymes in SK-Mel-24, B16F0 17kD Active caspase 3 […]
(§5) 48h. Cells were plated in complete growth medium. After overnight, cells were treated with different doses of 2HF, and PARP-1 incubated for 48h. Total cell lysates (40 µg/lane) were […]
(§6) buffer. Proteins were transferred to nitrocellulose C-terminal cleaved membrane, nonspecific binding was done in 1X clear milk, PARP~89kDa
(§7) +0.1%T20 (Invitrogen) for 1h at room temperature. All primary antibodies were from (mouse monoclonal, 1.0 0.8 0.9 1.0 0.9 ND 1.0 1.1 ND Santacruze Biotechnology (1:1000), in 1X clear milk
(§8) +0.1%T20 overnight in 40C. Secondary antibody from N-terminal cleaved
(§9) Santacruze Biotech (1:2000) for 1h at room temperature in PARP~24kDa […]
(§10) Supplemental Figure 7 Supplemental data for Fig. 5.
(§11) B16F0 SK-Mel- 24 B16F10Numbers below of each blot represent protein band intensity ratios to adequate
(§12) TNF-α Full blots are presented in next 4 figures. […]
(§13) cells after treatment with 50, 100 µM 2HF for 48h.
(§14) Raf-1 Raf-1 Cells were plated in complete growth medium. After overnight, cells were treated with different doses of 2HF, […]
(§15) loaded on 4- 12% bis-tris gel, with 1X MES gel running p-MEK-1 p-MEK-1 buffer. Proteins were transferred to nitrocellulose membrane, nonspecific binding was done in 1X clear
(§16) All primary antibodies were from (mouse monoclonal, MEKK15 MEKK15 except TNF-α (American Hamster), Santacruze
(§17) 1.0 0.9 0.1 ND ND ND overnight in 40C. Secondary antibody from Santacruze Biotech (1:2000) for 1h at room temperature in 1X clear […]

B16-F10 cells = experiment: Western blot densitometry of whole-cell lysates, B16-F10; assay type: cell-based, mouse; conditions: 48 h
Protocol: as §1, with “B16-F0, F16-F10, and SK-MEL-24 cells were treated for 24 h with vehicle, 50 µM, and 100 µM 2HF.” left out, “Total cell lysates (25 µg/lane) were loaded on 4–12% bis-tris gels, with MES gel running buffer.” left out
as §2, §3, §4, §5, §6, §7, §8, §9, §10, §11, §12, §13, §14, §15, §16, §17

B16-F0 cells [2] = experiment: MTT cytotoxicity assay, B16-F0; assay type: cell-based; conditions: Mus musculus, B16F0
Excerpt: We studied the growth-inhibitory effects of 2HF on the B16-F0 and B16-F10 murine melanoma cell lines as well as on the SK-MEL-24 human melanoma cell line. B16-F10 and SK-MEL-24 have been shown in previous studies to be highly resistant to treatment and much more invasive than B16-F0 [32]. […] The absorption value measured upon reduction of the MTT dye by functional mitochondria is an indirect measure of cell number that cannot distinguish inhibited cell proliferation from apoptotic or necrotic cell death. By counting viable (trypan-blue dye-excluding) cells using a hemacytometer, we verified that 2HF did indeed cause cell death.
Figure 1 Mouse and human melanoma cell survival following 2′-hydroxyflavanone (2HF) treatment.
The IC50 of 2HF on B16-F0, B16-F10, and SK-MEL-24 cells was determined by MTT cytotoxicity assay. Cells were harvested and Trypan Blue dye exclusion test was used to determine the number of viable cells present in a cell suspension using a hemocytometer. The cell suspension was diluted to 5 × 10^4 cells/mL with Dulbecco’s Modified Eagle’s Medium (DMEM) complete medium and 5000 cells/well were plated in 96-well plates. After 24 h incubation at 37 °C, cells were treated with 2HF concentrations ranging from 0–200 µM (8 replicates per plate). After 48 or 72 h incubation, 40 µL of MTT (5 mg/mL) solution was added. After 4 h incubation, the plate was centrifuged at 700× g for 5 min and medium was aspirated completely. Then, 50 µL DMSO was added to each well to dissolve the purple precipitate on the rocking platform for about 15 min. The absorbance was then measured at 490 nm using a 96-well microplate reader (Spectramax Plus, Molecular Devices, Inc, San Jose, CA, USA).

O=C1CC(c2ccccc2O)Oc2ccccc21 (centres unmarked) [2HF, 2′-hydroxyflavanone]
Active caspase 3 band intensity ratio to control (normalized against β-Actin) (B16-F0 cells [1]; B16F0, 50 µM 2HF): 0.9 | C-terminal cleaved PARP~89kDa band intensity ratio to control (normalized against β-Actin) (B16-F0 cells [1]; B16F0, 50 µM 2HF): 0.9 | MEKK15 band intensity ratio to control (normalized against β-Actin) (B16-F0 cells [1]; B16F0, 50 µM 2HF): 1.0 | N-terminal cleaved PARP~24kDa band intensity ratio to control (normalized against β-Actin) (B16-F0 cells [1]; B16F0, 50 µM 2HF): 0.9 | PARP-1 band intensity ratio to control (normalized against β-Actin) (B16-F0 cells [1]; B16F0, 50 µM 2HF): 0.9 | PKC α band intensity ratio to control (normalized against β-Actin) (B16-F0 cells [1]; B16F0, 50 µM 2HF): 0.6 | Procaspase 3 band intensity ratio to control (normalized against β-Actin) (B16-F0 cells [1]; B16F0, 50 µM 2HF): 1.0 | RAL BP-1 band intensity ratio to control (normalized against β-Actin) (B16-F0 cells [1]; B16F0, 50 µM 2HF): 0.9 | Raf-1 band intensity ratio to control (normalized against β-Actin) (B16-F0 cells [1]; B16F0, 50 µM 2HF): 0.2 | TNF-α band intensity ratio to control (normalized against β-Actin) (B16-F0 cells [1]; B16F0, 50 µM 2HF): 0.4 | p-MEK-1 band intensity ratio to control (normalized against β-Actin) (B16-F0 cells [1]; B16F0, 50 µM 2HF): 0.8 | p-PDGFR-β band intensity ratio to control (normalized against β-Actin) (B16-F0 cells [1]; B16F0, 50 µM 2HF): 0.3 | Active caspase 3 band intensity ratio to control (normalized against β-Actin) (B16-F0 cells [1]; B16F0, 100 µM 2HF): 0.1 | MEKK15 band intensity ratio to control (normalized against β-Actin) (B16-F0 cells [1]; B16F0, 100 µM 2HF): 4.7 | N-terminal cleaved PARP~24kDa band intensity ratio to control (normalized against β-Actin) (B16-F0 cells [1]; B16F0, 100 µM 2HF): 0.1 | PARP-1 band intensity ratio to control (normalized against β-Actin) (B16-F0 cells [1]; B16F0, 100 µM 2HF): 0.8 | PKC α band intensity ratio to control (normalized against β-Actin) (B16-F0 cells [1]; B16F0, 100 µM 2HF): 0.2 | Procaspase 3 band intensity ratio to control (normalized against β-Actin) (B16-F0 cells [1]; B16F0, 100 µM 2HF): 0.5 | RAL BP-1 band intensity ratio to control (normalized against β-Actin) (B16-F0 cells [1]; B16F0, 100 µM 2HF): 0.3 | p-MEK-1 band intensity ratio to control (normalized against β-Actin) (B16-F0 cells [1]; B16F0, 100 µM 2HF): 0.8 | Active caspase 3 band intensity ratio to control (normalized against β-Actin) (B16-F10 cells; B16F10, 50 µM 2HF): 1.0 | C-terminal cleaved PARP~89kDa band intensity ratio to control (normalized against β-Actin) (B16-F10 cells; B16F10, 50 µM 2HF): 1.1 | N-terminal cleaved PARP~24kDa band intensity ratio to control (normalized against β-Actin) (B16-F10 cells; B16F10, 50 µM 2HF): 1.1 | PARP-1 band intensity ratio to control (normalized against β-Actin) (B16-F10 cells; B16F10, 50 µM 2HF): 1.0 | Procaspase 3 band intensity ratio to control (normalized against β-Actin) (B16-F10 cells; B16F10, 50 µM 2HF): 0.9 | RAL BP-1 band intensity ratio to control (normalized against β-Actin) (B16-F10 cells; B16F10, 50 µM 2HF): 0.5 | Raf-1 band intensity ratio to control (normalized against β-Actin) (B16-F10 cells; B16F10, 50 µM 2HF): 0.5 | PKC α band intensity ratio to control (normalized against β-Actin) (B16-F10 cells; B16F10, 100 µM 2HF): 0.2 | Procaspase 3 band intensity ratio to control (normalized against β-Actin) (B16-F10 cells; B16F10, 100 µM 2HF): 0.1 | TNF-α band intensity ratio to control (normalized against β-Actin) (B16-F10 cells; B16F10, 100 µM 2HF): 0.3 | IC50 (B16-F0 cells [2]; MTT, 72 h, mean ±SD, n = 5, read-out: IC50 at 72 h (growth/survival)): 38 ± 4 µM | IC50 (B16-F0 cells [2]; Table 1, agent alone, read-out: IC50): 38.6 ± 1.61 µM
